# Reference: patent publication US20260345619A1 (Principia Biopharma Inc., priority 2023, published 2026)
# What was measured:
# BTK = conditions: over 24 h; cited from earlier work
# [1] = Asthma Nighttime Symptom Diary (ANSD) score; format: in vivo, human; conditions: for LS mean difference versus placebo, ANSD symptom score: Week 12
# Description: ADSD and ANSD are PRO measures developed by the PRO Consortium′ Asthma Working Group. Both instruments have been designed to measure asthma symptoms in adult and adolescent (12 years of age and older) patients diagnosed with mild to severe asthma. ADSD and ANSD assess asthma severity based on patient self-report of asthma core symptoms.
# Other efficacy endpoints included: • Change from baseline in pre- and post-bronchodilator FEV1 and other lung function measurement (peak expiratory flow (PEF), forced vital capacity (FVC), forced expiratory flow (FEF) 25-75%) at each spirometry endpoint. • Asthma Control Questionnaire-5 (ACQ-5) score change from baseline at EOT and at each assessment time point. • Asthma Quality of Life Questionnaire with Standardized Activities (AQLQ(S)) Self-Administered score change from baseline at EOT and at each assessment time point. • Change from baseline at EOT and change from baseline at each week for asthma symptom scores in the morning and evening (ADSD and ANSD). Questionnaire was to be administered daily and score averaged weekly for analysis. • Change from baseline at EOT and change from baseline at each week in number of inhalations/day of albuterol or levalbuterol for symptom relief.
# The ADSD and ANSD are PRO measures developed by the PRO Consortium′ Asthma Working Group. Both instruments have been designed to measure asthma symptoms in adult and adolescent (12 years of age and older) patients diagnosed with mild to severe asthma. ADSD and ANSD assess asthma severity based on patient self-report of asthma core symptoms, i.e., difficulty of breathing; wheezing; shortness of breath; chest tightness; chest pain; and cough. Patients were asked to complete the ADSD every night before they went to bed, thinking about their asthma symptoms on that day, from when they got up this morning until then; the ANSD when getting up, thinking about their asthma symptoms from the previous night from when they went to bed until then.
# Both the ADSD and ANSD are composed of 6 items rated using an 11-point NRS that ranges from 0=None to 10=As bad as you can imagine (Gater et al. 2016). The participants were to record their daytime and nighttime asthma symptoms in an electronic diary, once in the evening and once in the morning, respectively. The participants were to complete the ADSD and the ANSD.
smiles,measurement,setting,value
"CC(C)(C=C(C#N)C(=O)N1CCC[C@@H](n2nc(-c3ccc(Oc4ccccc4)cc3F)c3c(N)ncnc32)C1)N1CCN(C2COC2)CC1 (mixture of isomers) [rilzabrutinib, (R)-2-[3-[4-amino-3-(2-fluoro-4-phenoxy-phenyl)pyrazolo[3,4-d]pyrimidin-1-yl]piperidine-1-carbonyl]-4-methyl-4-[4-(oxetan-3-yl)piperazin-1-yl]pent-2-enenitrile]",sustained target occupancy,BTK,high sustained occupancy over 24 h
same,LS mean ANSD change from baseline at Week 12,[1]; 400 mg BID,−0.35
same,"LS mean difference versus placebo, ANSD symptom score","[1]; 400 mg BID, 95% CI −1.33, −0.03, nominal p=0.0390",−0.68
same,LS mean ANSD change from baseline at Week 12,[1]; 400 mg TID,−0.48
same,"LS mean difference versus placebo, ANSD symptom score","[1]; 400 mg TID, 95% CI −1.13, 0.06, nominal p=0.0758",−0.54
same,ANSD symptom score (in words),"[1]; both cohorts, Week 12, all components",improvement in ADSD and ANSD symptom score
